Experimental data published in PubChem BioAssay (NCI).
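Results reflect a 48-hour exposure of cells in 96-well plates to compound at five concentrations. TGI is the concentration that stops growth completely.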

Tests used:
Assay in all cases: DTP human tumour cell line panel, 48 h
K-562 leukemia = system: K-562 leukemia
OVCAR-4 ovarian = system: OVCAR-4 ovarian
RXF 393 renal = system: RXF 393 renal
TK-10 renal = system: TK-10 renal
UO-31 renal = system: UO-31 renal
NCI/ADR-RES ovarian = system: NCI/ADR-RES ovarian
OVCAR-5 ovarian = system: OVCAR-5 ovarian
M14 melanoma = system: M14 melanoma
SK-MEL-5 melanoma = system: SK-MEL-5 melanoma
HL-60(TB) leukemia = system: HL-60(TB) leukemia
UACC-257 melanoma = system: UACC-257 melanoma
OVCAR-8 ovarian = system: OVCAR-8 ovarian
SR leukemia = system: SR leukemia
SF-295 CNS = system: SF-295 CNS
HOP-92 NSCLC = system: HOP-92 NSCLC
SK-MEL-28 melanoma = system: SK-MEL-28 melanoma
MALME-3M melanoma = system: MALME-3M melanoma
COLO 205 colon = system: COLO 205 colon
SNB-75 CNS = system: SNB-75 CNS
HS 578T breast = system: HS 578T breast

Row | SMILES | TGI (K-562 leukemia) [µM] | TGI (OVCAR-4 ovarian) [µM] | TGI (RXF 393 renal) [µM] | TGI (TK-10 renal) [µM] | TGI (UO-31 renal) [µM] | TGI (NCI/ADR-RES ovarian) [µM] | TGI (OVCAR-5 ovarian) [µM] | TGI (M14 melanoma) [µM] | TGI (SK-MEL-5 melanoma) [µM] | TGI (HL-60(TB) leukemia) [µM] | TGI (UACC-257 melanoma) [µM] | TGI (OVCAR-8 ovarian) [µM] | TGI (SR leukemia) [µM] | TGI (SF-295 CNS) [µM] | TGI (HOP-92 NSCLC) [µM] | TGI (SK-MEL-28 melanoma) [µM] | TGI (MALME-3M melanoma) [µM] | TGI (COLO 205 colon) [µM] | TGI (SNB-75 CNS) [µM] | TGI (HS 578T breast) [µM]
1 | O=C1/C(=C/c2ccccc2)N=C(c2ccccc2)N1C1Nc2cc3c(cc2S1)NC(N1C(=O)/C(=C/c2ccccc2)N=C1c1ccccc1)S3 (stereo not drawn) | > 100 | > 100 | 54.3 | > 100 | > 100 | > 100 | > 100 | > 100 | > 100 | > 100 | > 100 | > 100 | > 100 | > 100 | 8.27 | > 100 | – | – | – | –
2 | Cc1nc(-c2cc3c(ccc4ccccc43)oc2=O)cc2c1c(=O)oc1ccc3ccccc3c12 | > 100 | > 100 | > 100 | > 100 | > 100 | > 100 | > 100 | > 100 | > 100 | > 100 | > 100 | > 100 | > 100 | > 100 | > 100 | > 100 | > 100 | > 100 | – | –
3 | COc1ccc2c(c1)CC[C@@H]1[C@@H]2CC[C@]2(C)C(=O)/C(=C/c3ccncc3)C[C@@H]12 | > 100 | > 100 | 46.7 | > 100 | > 100 | > 100 | > 100 | > 100 | 41.6 | – | > 100 | > 100 | > 100 | 66.6 | 77.9 | 90.6 | 77.3 | > 100 | > 100 | –
4 | COC(=O)c1c2c(c(-c3ccccc3)c3c1-c1nc(Cl)ccc1CC3)CCc1ccc(Cl)nc1-2 | > 100 | > 100 | > 100 | > 100 | > 100 | – | > 100 | > 100 | > 100 | > 100 | > 100 | > 100 | > 100 | > 100 | > 100 | > 100 | > 100 | > 100 | > 100 | –
5 | O=C(Nc1sccc1S(=O)(=O)c1ccc(Cl)cc1)C(F)(F)F | 35.5 | > 100 | – | > 100 | > 100 | > 100 | > 100 | > 100 | 38.8 | – | > 100 | > 100 | 58.3 | > 100 | > 100 | > 100 | > 100 | 31.8 | 71.6 | 72.1
6 | O=C(/C=C\c1ccccc1)Oc1ccc(/C=C2\CCCCC2=O)cc1 | – | > 100 | – | 43.2 | > 100 | – | > 100 | > 100 | > 100 | 35.2 | 87.3 | > 100 | – | > 100 | > 100 | > 100 | > 100 | 62.9 | > 100 | > 100
7 | NC1CC(=O)c2csc(Cl)c21 (stereo not drawn) | > 100 | 68.8 | 17.8 | 24.1 | 12.7 | > 86.7 | 37.1 | 23.7 | 35.3 | 13.1 | 29 | 23 | – | 32 | 25.4 | 46.3 | 7.56 | 12.1 | 31.8 | > 100
